Paper PMC7024208, “In Silico and In Vitro Experimental Studies of New Dibenz[b,e]oxepin-11(6H)one O-(arylcarbamoyl)-oximes Designed as Potential Antimicrobial Agents” (Molecules, 2020)
Values after ≈ are worked out from the molar mass of the structure shown. Read-outs that look alike come from different tables or passages of the source.

What was measured:
B. subtilis ATCC 6633 [1] = assay: Qualitative antimicrobial screening, adapted disk diffusion; type: cell-based, Bacillus subtilis; parameters: zone of inhibition: dose or concentration left out as unconfirmed; details: for growth inhibition diameter / zone of inhibition at 5000 µg/mL (stock): B. subtilis ATCC 6633, adapted diffusion assay; for zone of inhibition at 5000 µg/mL (stock): ATCC6633, read-out: growth inhibition diameter
Description: (§1) The antimicrobial activities of the synthesized compounds were determined against ATCC reference and clinical microbial strains, i.e., Bacillus subtilis ATCC 6633, Staphylococcus aureus ATCC 25923, Escherichia coli ATCC 25922, Klebsiella pneumoniae 350, Pseudomonas aeruginosa 1671 and Candida albicans ATCC 10231, using as positive controls the antibiotic ticarcillin and the antifungal agent fluconazole. Microbial suspensions of 1.5 × 10^8 CFU/mL corresponding to 0.5 McFarland density obtained from 15–18 h bacterial cultures developed on solid media were used in our experiments. The antimicrobial activity was tested on Mueller-Hinton Agar (MHA) medium, while a Yeast Peptone Glucose (YPG) medium was used in case of C. albicans. The obtained compounds were solubilized in DMSO and the starting stock solution was of 5000 μg/mL concentration. The qualitative screening was performed by an adapted disk diffusion method as previously reported.

S. aureus ATCC 25923 [2] = assay: as above; type: cell-based, Staphylococcus aureus; parameters: zone of inhibition: dose or concentration left out as unconfirmed; details: for zone of inhibition at 5000 µg/mL (stock): ATCC25923, read-out: growth inhibition diameter
Description: as §1

P. aeruginosa ATCC 27853 = assay: as above; type: cell-based; parameters: zone of inhibition: dose or concentration left out as unconfirmed; details: Pseudomonas aeruginosa; for zone of inhibition at 5000 µg/mL (stock): ATCC27853, P. aeruginosa ATCC 27853, adapted diffusion assay, read-out: growth inhibition diameter
E. coli ATCC 25922 [3] = assay: as above; type: cell-based, Escherichia coli; parameters: zone of inhibition: dose or concentration left out as unconfirmed; details: for growth inhibition diameter / zone of inhibition at 5000 µg/mL (stock): E. coli ATCC 25922, adapted diffusion assay; for zone of inhibition at 5000 µg/mL (stock): ATCC25922, read-out: growth inhibition diameter
Description: as §1

K. pneumoniae 1771 = assay: as above; type: cell-based, Klebsiella pneumoniae; parameters: zone of inhibition: dose or concentration left out as unconfirmed; details: for zone of inhibition at 5000 µg/mL (stock): Klebsiella pneumoniae, K. pneumoniae 1771, adapted diffusion assay, read-out: growth inhibition diameter
C. albicans ATCC 10231 [4] = assay: as above; type: cell-based, Candida albicans; parameters: zone of inhibition: dose or concentration left out as unconfirmed; details: for growth inhibition diameter / zone of inhibition at 5000 µg/mL (stock): C. albicans ATCC 10231, adapted diffusion assay; for zone of inhibition at 5000 µg/mL (stock): ATCC10231, read-out: growth inhibition diameter
Description: as §1

B. subtilis ATCC 6633 [5] = assay: MIC by liquid medium microdilution; type: cell-based, Bacillus subtilis; details: B. subtilis ATCC 6633, 24 h at 37 °C
Description: as §1
(§2) The quantitative assay of the antimicrobial activity was performed by the liquid medium microdilution method, in 96 multi-well plates, in order to establish the minimal inhibitory concentration (MIC). In this purpose, serial two-fold dilutions of the compounds ranging between 5000 and 4.8 µg/mL were performed in a 200 µL volume of broth and each well was seeded with 50 µL of microbial inoculum. Sterility control (wells containing only culture medium) and culture controls (wells containing culture medium seeded with the microbial inoculum) were used. The influence of the DMSO solvent was also quantified in a series of wells containing DMSO [36], diluted accordingly with the dilution scheme used for the compounds and for the positive controls.

C. albicans ATCC 10231 [6] = assay: MIC by liquid medium microdilution; type: cell-based; details: Candida albicans
Description: as §1, §2

E. coli ATCC 25922 [7] = assay: MIC by liquid medium microdilution; type: cell-based; details: Escherichia coli
Description: as §1, §2

S. aureus ATCC 25923 [8] = assay: MIC by liquid medium microdilution; type: cell-based; details: Staphylococcus aureus
Description: as §1, §2

S. aureus ATCC 25923 [9] = assay: Antibiofilm activity (MBEC), micro-titer method on plastic inert substratum; type: cell-based, Staphylococcus aureus; details: S. aureus ATCC 25923 biofilm on plastic substratum
Description: (§3) The assessment of the new compounds influence on the microbial ability to colonize the plastic inert substratum was performed by the micro-titer method, following previously described protocols. The absorbance at 490 nm was measured with an LB 911 ELISA reader (Apollo, Berthold Technologies GmbH & Co. KG, Bad Wildbad, Germany). All biological experiments were performed in triplicates.

[10] = Cytotoxicity, CellTiter Assay; type: cell-based; details: human, HCT8 cells, 400–10 µg/mL tested
Description: (§4) For the in vitro assessment of the cytotoxic effect, the HCT8 cells and the CellTiter Assay kit (Promega, Madison, WI, USA) and Annexin V-FITC Apoptosis Detection Kit I (BD Bioscience Pharmingen, Franklin Lakes, NJ, USA) were used. Briefly, for CellTiter Assay, 1 × 10^4 cells/well were plated in 96 well plate and 24 h after, were treated with the new compound at final concentration between 400 µg/mL–10 µg/mL. The viability was evaluated after 24 h by adding CellTiter aqueous solution and reading to spectrophotometer according to the manufacturer indications. The IC50 were calculated from the percent of viability reported to untreated cells using on line tools https://www.aatbio.com/tools/ic50-calculator. For Annexin V-FITC Apoptosis Detection Kit I, 5 × 10^5 cells were seeded in 3.5 cm diameter Petri dish and treated with 100 µg/mL compounds solution for 24 h. The total cells were resuspended in 100 µL of binding buffer, and stained with 5 µL Annexin V-FITC and 5 µL propidium iodide for 10 min in dark. At least 10,000 events from each sample were acquired using a flow cytometer (Beckman Coulter, Indianapolis, IN, USA). The percentage of cells affected by the treatment was determined by subtracting the percentage of apoptotic/necrotic cells in the untreated population from percentage of apoptotic cells in the treated population.

[11] = Annexin V-FITC/propidium iodide apoptosis analysis by flow cytometry; type: cell-based; details: human, HCT8 cells, Annexin V-FITC/PI, read-out: viable cells (Q4)
Description: as §4

C. albicans ATCC 10231 [12] = assay: Antibiofilm activity (MBEC), micro-titer method on plastic inert substratum; type: cell-based, Candida albicans; details: C. albicans ATCC 10231 biofilm on plastic substratum
Description: as §3

B. subtilis ATCC 6633 [13] = assay: as above; type: cell-based, Bacillus subtilis; details: B. subtilis ATCC 6633 biofilm on plastic substratum
Description: as §3

[14] = Staphylococcus aureus, S. aureus ATCC 25923, adapted diffusion assay
[15] = ATCC10231, C. albicans ATCC 10231, 24 h at 37 °C, read-out: MIC
[16] = ATCC25922, E. coli ATCC 25922, 24 h at 37 °C, read-out: MIC
[17] = ATCC25923, S. aureus ATCC 25923, 24 h at 37 °C, read-out: MIC

Row | SMILES | IC50 at 24 h [10] [µg/mL] | viability at 24 h, 100 µg/mL [11] [%] | zone of inhibition at 5000 µg/mL (stock) (B. subtilis ATCC 6633 [1]; Bacillus subtilis) [mm] | zone of inhibition at 5000 µg/mL (stock) (S. aureus ATCC 25923 [2]; [14]) [mm] | zone of inhibition at 5000 µg/mL (stock) (P. aeruginosa ATCC 27853) [mm] | zone of inhibition at 5000 µg/mL (stock) (E. coli ATCC 25922 [3]; Escherichia coli) [mm] | zone of inhibition at 5000 µg/mL (stock) (K. pneumoniae 1771) [mm] | zone of inhibition at 5000 µg/mL (stock) (C. albicans ATCC 10231 [4]; Candida albicans) [mm] | further results
1 | O=C(Nc1ccc(F)cc1)ON=C1c2ccccc2COc2ccccc21 [Compound 7b, 6,11-Dihydrodibenz[b,e]oxepin-11(6H)one O-(4-fluorophenyl-carbamoyl)oxime] | 252 (≈ 695 µM) | 84.3 | – | – | – | – | – | – | growth inhibition diameter (B. subtilis ATCC 6633 [1]): active exclusively on B. subtilis; zone of inhibition (B. subtilis ATCC 6633 [1]; Bacillus subtilis, ATCC6633, read-out: growth inhibition diameter): 7 mm; zone of inhibition (S. aureus ATCC 25923 [2]; Staphylococcus aureus, ATCC25923, read-out: growth inhibition diameter): 0 mm; zone of inhibition (P. aeruginosa ATCC 27853; ATCC27853, read-out: growth inhibition diameter): 0 mm; zone of inhibition (E. coli ATCC 25922 [3]; Escherichia coli, ATCC25922, read-out: growth inhibition diameter): 0 mm; zone of inhibition (K. pneumoniae 1771; Klebsiella pneumoniae, 1771, read-out: growth inhibition diameter): 0 mm; zone of inhibition (C. albicans ATCC 10231 [4]; Candida albicans, ATCC10231, read-out: growth inhibition diameter): 0 mm; MIC (B. subtilis ATCC 6633 [5]): 4.8 µg/mL (≈ 13.2 µM); MIC (B. subtilis ATCC 6633 [5]; Bacillus subtilis, ATCC6633, 24 h): 4.8 to 39 µg/mL (≈ 13.2 to 108 µM); MIC (C. albicans ATCC 10231 [6]; ATCC10231, 24 h): > 5000 µg/mL; MIC (E. coli ATCC 25922 [7]; ATCC25922, 24 h): > 5000 µg/mL; MIC (S. aureus ATCC 25923 [8]; ATCC25923, 24 h): > 5000 µg/mL; MBEC (S. aureus ATCC 25923 [9]): 19.5 µg/mL
2 | O=C(Nc1cccc(Cl)c1)ON=C1c2ccccc2COc2ccccc21 [Compound 7c, 6,11-Dihydrodibenz[b,e]oxepin-11(6H)one O-(3-chlorophenyl-carbamoyl)oxime] | 304 (≈ 803 µM) | 89.8 | 0 | 0 | 0 | 4 | 0 | 8 | growth inhibition diameter (E. coli ATCC 25922 [3]): active against; growth inhibition diameter (C. albicans ATCC 10231 [4]): active against; MIC (B. subtilis ATCC 6633 [5]; Bacillus subtilis, ATCC6633, 24 h, read-out: MIC): > 5000 µg/mL; MIC (C. albicans ATCC 10231 [6]; [15]): 1250 µg/mL (≈ 3300 µM); MIC (E. coli ATCC 25922 [7]; [16]): 1250 µg/mL (≈ 3300 µM); MIC (S. aureus ATCC 25923 [8]; [17]): > 5000 µg/mL; MBEC (C. albicans ATCC 10231 [12]): 4.8 µg/mL
3 | O=C(Nc1ccc(Cl)cc1)ON=C1c2ccccc2COc2ccccc21 [Compound 7d, 6,11-Dihydrodibenz[b,e]oxepin-11(6H)one O-(4-chlorophenyl-carbamoyl)oxime] | – | – | 0 | 0 | 0 | 0 | 0 | 0 | –
4 | O=C(Nc1ccc(Cl)cc1Cl)ON=C1c2ccccc2COc2ccccc21 [Compound 7e, 6,11-Dihydrodibenz[b,e]oxepin-11(6H)one O-(2,4-dichlorophenyl-carbamoyl)oxime] | – | – | 0 | 0 | 0 | 0 | 0 | 0 | –
5 | O=C(Nc1cccc(C(F)(F)F)c1)ON=C1c2ccccc2COc2ccccc21 [Compound 7f, 6,11-Dihydrodibenz[b,e]oxepin-11(6H)one O-(3-trifluoromethylphenyl-carbamoyl)oxime] | 54.3 (≈ 132 µM) | 14.8 | 11 | 8 | 0 | 10 | 0 | 12 | growth inhibition diameter (B. subtilis ATCC 6633 [1]): inhibited the microbial growth; growth inhibition diameter (S. aureus ATCC 25923 [2]; S. aureus ATCC 25923, adapted diffusion assay): inhibited the microbial growth; growth inhibition diameter (E. coli ATCC 25922 [3]): inhibited the microbial growth; growth inhibition diameter (C. albicans ATCC 10231 [4]): inhibited the microbial growth; MIC (E. coli ATCC 25922 [7]; [16]): 78 µg/mL (≈ 189 µM); MIC (S. aureus ATCC 25923 [8]; [17]): 4.8 µg/mL (≈ 11.6 µM); MBEC (B. subtilis ATCC 6633 [13]): 39 µg/mL; MBEC (S. aureus ATCC 25923 [9]): 39 µg/mL
6 | Cc1ccc2c(c1)C(=NOC(=O)Nc1ccc(Cl)cc1Cl)c1ccccc1CO2 [Compound 7g, 2-Methyl-6,11-dihydro-dibenz[b,e]oxepin-11(6H)one O-(2,4-dichlorophenyl-carbamoyl)oxime] | – | – | 0 | 0 | 0 | 0 | 0 | 0 | –
7 | CCc1ccc2c(c1)C(=NOC(=O)Nc1ccccc1)c1ccccc1CO2 [Compound 7h, 2-Ethyl-6,11-dihydro-dibenz[b,e]oxepin-11(6H)one O-(phenyl-carbamoyl)oxime] | – | – | 0 | 0 | 0 | 0 | 0 | 0 | –
8 | CCc1ccc2c(c1)C(=NOC(=O)Nc1ccc(F)cc1)c1ccccc1CO2 [Compound 7i, 2-Ethyl-6,11-dihydro-dibenz[b,e]oxepin-11(6H)one O-(4-fluorophenyl-carbamoyl)oxime] | – | – | 0 | 0 | 0 | 0 | 0 | 0 | –
9 | CCc1ccc2c(c1)C(=NOC(=O)Nc1ccc(Cl)cc1Cl)c1ccccc1CO2 [Compound 7j, 2-Ethyl-6,11-dihydro-dibenz[b,e]oxepin-11(6H)one O-(2,4-dichlorophenyl-carbamoyl)oxime] | – | – | 0 | 0 | 0 | 0 | 0 | 0 | –
10 | OC(Cn1cncn1)(Cn1cncn1)c1ccc(F)cc1F [Fluconazole, fluconazole, reference compound] | – | – | – | – | – | – | – | 10 | MIC (C. albicans ATCC 10231 [6]; [15]): 4.8 µg/mL (≈ 15.7 µM); MBEC (C. albicans ATCC 10231 [12]): 39 µg/mL
